From ChEMBL document CHEMBL3994565 (Medchemcomm, 2016)
The source made the active and inactive calls. No cut-off for these calls is given here.

What was measured:
[1] = Antiviral activity against Influenza A virus (A/WSN/33(H1N1)) infected in MDCK cells assessed as inhibition of virus-induced cytopathic effect incubated for 40 hrs by CellTiter-Glo assay; type: functional, cell-based, Influenza A virus (A/WSN/1933(H1N1))
[2] = Antiviral activity against Influenza A virus (A/WSN/33(H1N1)) infected in MDCK cells assessed as inhibition of virus-induced cytopathic effect at 50 uM incubated for 40 hrs by CellTiter-Glo assay; type: functional, Influenza A virus (A/WSN/1933(H1N1))
[3] = Selectivity index, ratio of CC50 against uninfected MDCK cells to IC50 against Influenza A virus (A/WSN/33(H1N1)) infected MDCK cells; type: toxicity, cell-based; conditions: dog; read-out: Ratio CC50/IC50
[4] = Cytotoxicity against MDCK cells assessed as decrease in cell viability after 40 hrs by CellTiter-Glo assay; type: cell-based, Canis lupus familiaris; conditions: dog
[5] = Cytotoxicity against MDCK cells assessed as cell viability at 50 uM after 40 hrs by CellTiter-Glo assay; type: cell-based, Canis lupus familiaris; conditions: dog, read-out: Activity
[6] = Binding affinity to recombinant Influenza virus hemagglutinin by surface plasmon resonance analysis; set-up: species or system unidentified influenza virus; conditions: read-out: Kd(app)
[7] = Cytotoxicity against MDCK cells assessed as cell viability at 100 uM after 40 hrs by CellTiter-Glo assay relative to control; type: cell-based, Canis lupus familiaris; conditions: dog, read-out: Activity
[8] = Antiviral activity against Influenza A virus (A/WSN/33(H1N1)) infected in MDCK cells assessed as inhibition of virus-induced cytopathic effect at 100 uM incubated for 40 hrs by CellTiter-Glo assay; type: functional, Influenza A virus (A/WSN/1933(H1N1))
[9] = Cytotoxicity against MDCK cells assessed as cell viability at 100 uM after 40 hrs in presence of betulinic acid by CellTiter-Glo assay; type: cell-based, Canis lupus familiaris; conditions: dog, read-out: Activity
[10] = Cytotoxicity against MDCK cells assessed as cell viability at 10 uM after 40 hrs by CellTiter-Glo assay; type: cell-based, Canis lupus familiaris; conditions: dog, read-out: Activity
[11] = Antiviral activity against Influenza A virus (A/WSN/33(H1N1)) infected in MDCK cells assessed as inhibition of virus-induced cytopathic effect at 10 uM incubated for 40 hrs by CellTiter-Glo assay; type: functional, Influenza A virus (A/WSN/1933(H1N1))
[12] = tested on: Influenza A virus (A/WSN/1933(H1N1)); assay: Inhibition of Influenza A virus (A/WSN/33(H1N1)) neuraminidase activity using 4-MUNANA as substrate incubated for 30 mins by fluorescence spectrophotometry relative to control
[13] = Cytotoxicity against MDCK cells assessed as cell viability at 100 uM after 40 hrs in presence of sialic acid by CellTiter-Glo assay; type: cell-based, Canis lupus familiaris; conditions: dog, read-out: Activity
[14] = Antiviral activity against Influenza A virus (A/WSN/33(H1N1)) infected in MDCK cells assessed as inhibition of viral production up to 2 hrs post-infection by plaque formation assay; type: functional, Influenza A virus (A/WSN/1933(H1N1))
[15] = tested on: Influenza A virus (A/WSN/1933(H1N1)); assay: Antiviral activity against Influenza A virus (A/WSN/33(H1N1)) infected in MDCK cells assessed as inhibition of viral production after 2 hrs post-infection by plaque formation assay; type: functional, cell-based
[16] = target: Hemagglutinin (Influenza A virus) (UniProt B4URE7); assay: Inhibition of Influenza A virus (A/WSN/33(H1N1)) hemagglutinin-mediated aggregation of chicken erythrocytes after 30 mins; conditions: Influenza A virus (A/WSN/1933(H1N1))
Sequence of Hemagglutinin (Influenza A virus) (B4URE7 as listed by the source): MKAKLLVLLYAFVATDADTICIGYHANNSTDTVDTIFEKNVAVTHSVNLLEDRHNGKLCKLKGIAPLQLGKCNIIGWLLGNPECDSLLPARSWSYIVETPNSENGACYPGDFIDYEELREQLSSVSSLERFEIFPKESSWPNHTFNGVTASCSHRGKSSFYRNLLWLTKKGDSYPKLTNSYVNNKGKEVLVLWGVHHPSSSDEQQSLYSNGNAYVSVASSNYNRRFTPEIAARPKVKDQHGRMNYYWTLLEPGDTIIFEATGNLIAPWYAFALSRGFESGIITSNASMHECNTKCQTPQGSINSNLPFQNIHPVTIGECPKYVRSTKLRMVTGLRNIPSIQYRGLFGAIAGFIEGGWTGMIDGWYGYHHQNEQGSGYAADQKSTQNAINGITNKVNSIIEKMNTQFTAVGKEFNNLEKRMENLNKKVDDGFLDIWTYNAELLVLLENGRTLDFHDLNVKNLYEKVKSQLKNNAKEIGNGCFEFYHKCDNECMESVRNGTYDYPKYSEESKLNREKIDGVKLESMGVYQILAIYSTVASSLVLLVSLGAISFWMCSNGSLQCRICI

With `CCOC(=O)C1=C[C@@H](OC(CC)CC)[C@H](NC(C)=O)[C@@H](N)C1` [OSELTAMIVIR] as the compound, how does the IC50 [1] read?
Its IC50 is 46.5 µM.

And the inhibition at 50 µM [2]?
The inhibition at 50 µM was 72.6%.

And the selectivity ratio [3]?
Its selectivity ratio is greater than 10.8.

What about the CC50 at 40 h [4] of the same compound?
The CC50 at 40 h was greater than 500 µM.

And the viability at 40 h, 50 µM [5]?
The viability at 40 h, 50 µM was 98.5%.

Which Kd [6] does the source give for `CC(=O)N[C@H]1[C@H]([C@H](O)[C@H](O)CO)O[C@@](O)(C(=O)O)C[C@@H]1O` here?
The Kd was 692 µM.

And the viability at 40 h, 100 µM [7]?
The viability at 40 h, 100 µM was 96.4%.

And the inhibition at 100 µM [8]?
The inhibition at 100 µM was 2%.

What about the viability at 40 h, 100 µM [9] of the same compound?
The viability at 40 h, 100 µM was 20.3%.

With `COc1cc(/C=C/C(=O)CC(=O)/C=C/c2ccc(O)c(OC)c2)ccc1O` [CURCUMIN] as the compound, how does the IC50 [1] read?
The IC50 was 6.7 µM.

And the viability at 40 h, 10 µM [10]?
Its viability at 40 h, 10 µM is 98.7%.

What about the inhibition at 10 µM [11] of the same compound?
Its inhibition at 10 µM is 69.3%.

What about the selectivity ratio [3] of the same compound?
The selectivity ratio was 7.2.

What about the CC50 at 40 h [4] of the same compound?
Its CC50 at 40 h is 48.3 µM.

For `C=C(C)[C@@H]1CC[C@]2(C(=O)OCCO[C@]3(C(=O)OC)C[C@H](OC(C)=O)[C@@H](NC(C)=O)[C@H]([C@H](OC(C)=O)[C@@H](COC(C)=O)OC(C)=O)O3)CC[C@]3(C)[C@H](CC[C@@H]4[C@@]5(C)CC[C@H](O)C(C)(C)[C@@H]5CC[C@]43C)[C@@H]12`, which IC50 [1] is on record?
Its IC50 is 61.3 µM.

What about the inhibition [12] of the same compound?
Its inhibition is “inactive”.

What about the viability at 40 h, 100 µM [7] of the same compound?
Its viability at 40 h, 100 µM is 80.7%.

What about the inhibition at 100 µM [8] of the same compound?
Its inhibition at 100 µM is 86.6%.

And the selectivity ratio [3]?
Its selectivity ratio is 2.9.

What about the CC50 at 40 h [4] of the same compound?
The CC50 at 40 h was 178 µM.

For `C=C(C)[C@@H]1CC[C@]2(C(=O)O)CC[C@]3(C)[C@H](CC[C@@H]4[C@@]5(C)CC[C@H](O)C(C)(C)[C@@H]5CC[C@]43C)[C@@H]12` [BETULINIC ACID], which Kd [6] is on record?
The Kd was 30 µM.

What about the viability at 40 h, 100 µM [7] of the same compound?
The viability at 40 h, 100 µM was 22.8%.

And the viability at 40 h, 100 µM [13]?
Its viability at 40 h, 100 µM is 20.3%.

Which IC50 [1] does the source give for `C=C(C)[C@@H]1CC[C@]2(C(=O)OCCO[C@]3(C(=O)OC)C[C@H](O)[C@@H](NC(C)=O)[C@H]([C@H](O)[C@H](O)CO)O3)CC[C@]3(C)[C@H](CC[C@@H]4[C@@]5(C)CC[C@H](O)C(C)(C)[C@@H]5CC[C@]43C)[C@@H]12` here?
Its IC50 is 41.2 µM.

And the Kd [6]?
The Kd was 17 µM.

And the inhibition [12]?
Its inhibition is “inactive”.

What about the viability at 40 h, 100 µM [7] of the same compound?
Its viability at 40 h, 100 µM is 98.3%.

And the inhibition at 100 µM [8]?
Its inhibition at 100 µM is 94.8%.

What about the “inhibition (INH)” value [14] of the same compound?
The value was greater than 75%.

And the inhibition [15]?
The inhibition was “inactive”.

What about the inhibition [16] of the same compound?
Its inhibition is “Dose-dependent effect”.

What about the selectivity ratio [3] of the same compound?
The selectivity ratio was greater than 12.1.

And the CC50 at 40 h [4]?
Its CC50 at 40 h is greater than 500 µM.
